Marks after values point to notes of the source that are not given here.
Columns and labels:
Test in all cases: Broth microdilution antifungal susceptibility (Example 13)
Type in all cases: cell-based
Candida albicans = test system: Candida albicans
Candida glabrata = test system: Candida glabrata
Candida krusei = test system: Candida krusei
Candida auris = test system: Candida auris
A. niger = A. niger ATCC 29508; for MIC0: comparators, read time not given
A. terreus = A. terreus MMX 8229; for MIC0: comparators, read time not given
A. fumigatus = settings: for MIC0: comparators, read time not given
A. flavus = settings: for MIC0: comparators, read time not given
[1] = isolate ATCC 90028 (Susceptible), 24 hr
[2] = isolate ATCC 204276 (MICA-R), 24 hr
[3] = isolate ATCC MYA-2732 (FLU-R, VORI-I), 24 hr
[4] = isolate MMX 7053 (Susceptible), 24 hr
[5] = isolate MMX 7067 (FLU-R, VORI-R), 24 hr
[6] = isolate MMX 7403 (Susceptible), 24 hr
[7] = isolate MMX 7424 (CASP-R, MICA-R), 24 hr
[8] = isolate MMX 7430 (Susceptible), 24 hr
[9] = isolate MMX 7437 (FLU-I), 24 hr
[10] = isolate MMX 7445 (FLU-R, VORI-R), 24 hr
[11] = isolate ATCC 90030 (Susceptible)
[12] = isolate ATCC MYA-2950 (Susceptible)
[13] = isolate MMX 7103 (CASP-R, MICA-R)
[14] = isolate MMX 7285 (CASP-R, MICA-R)
[15] = isolate MMX 7307 (CASP-R, MICA-R, FLU-R)
[16] = isolate ATCC 14243 (Susceptible)
[17] = isolate ATCC 96685 (Susceptible)
[18] = isolate MMX 9878 (MICA-I, VORI-I)
[19] = isolate MMX 9863 (FLU-R, VORI-R)
[20] = isolate MMX 9864 (FLU-R, VORI-R)
[21] = isolate MMX 9865 (FLU-R, VORI-R)
[22] = isolate MMX 9866 (FLU-R, VORI-R)
[23] = isolate MMX 9867 (FLU-R, VORI-R)
[24] = isolate MMX 9868 (FLU-R, VORI-R)
[25] = isolate MMX 9869 (FLU-R, VORI-R)
[26] = isolate MMX 9870 (FLU-R, VORI-R)
[27] = 48 hr only, insufficient growth for 24 hr read

C[C@@H]1[C@H](O)[C@@H](C)/C=C/C=C/C=C/C=C/C=C/C=C/C=C/[C@H](O[C@@H]2O[C@H](C)[C@@H](O)[C@H](N)[C@@H]2O)C[C@@H]2O[C@](O)(C[C@@H](O)C[C@@H](O)[C@H](O)CC[C@@H](O)C[C@@H](O)CC(=O)O[C@H]1C)C[C@H](O)[C@H]2C(=O)O [AMP B]
0.5 µg/mL: MIC0 (complete inhibition) (Candida krusei; isolate ATCC 6258 (MICA-I)) | MIC0 (complete inhibition) (Candida krusei; [17]) | MIC0 (complete inhibition) (Candida krusei; isolate MMX 7125 (Susceptible)) | MIC0 (complete inhibition) (Candida krusei; isolate MMX 7128 (Susceptible)) | MIC0 (complete inhibition) (Candida krusei; isolate MMX 7153 (MICA-R)) | MIC0 (complete inhibition) (Candida krusei; isolate MMX 7563 (Susceptible)) | MIC0 (complete inhibition) (Candida krusei; [18]) | MIC0 (complete inhibition) (Candida auris; [22]) | MIC0 (complete inhibition) (Candida auris; [23])
0.25 µg/mL: MIC0 (complete inhibition) (Candida albicans; [1]) | MIC0 (complete inhibition) (Candida albicans; [2]) | MIC0 (complete inhibition) (Candida albicans; [3]) | MIC0 (complete inhibition) (Candida albicans; [5]) | MIC0 (complete inhibition) (Candida albicans; [6]) | MIC0 (complete inhibition) (Candida albicans; [7]) | MIC0 (complete inhibition) (Candida albicans; [8]) | MIC0 (complete inhibition) (Candida albicans; [9]) | MIC0 (complete inhibition) (Candida glabrata; [11]) | MIC0 (complete inhibition) (Candida glabrata; isolate MMX 7093 (FLU-R)) | MIC0 (complete inhibition) (Candida glabrata; isolate MMX 7101 (FLU-R)) | MIC0 (complete inhibition) (Candida glabrata; [13]) | MIC0 (complete inhibition) (Candida glabrata; isolate MMX 7111 (Susceptible)) | MIC0 (complete inhibition) (Candida glabrata; [14]) | MIC0 (complete inhibition) (Candida glabrata; [15]) | MIC0 (complete inhibition) (Candida glabrata; isolate MMX 7549 (Susceptible)) | MIC0 (complete inhibition) (Candida krusei; [16]) | MIC0 (complete inhibition) (Candida krusei; isolate MMX 7141 (Susceptible)) | MIC0 (complete inhibition) (Candida krusei; isolate MMX 7155 (Susceptible)) | MIC0 (complete inhibition) (Candida auris; isolate MMX 9862 (Susceptible)) | MIC0 (complete inhibition) (Candida auris; [20]) | MIC0 (complete inhibition) (Candida auris; [21]) | MIC0 (complete inhibition) (Candida auris; [24]) | MIC0 (A. niger) | MIC0 (A. terreus)
0.12 µg/mL: MIC0 (complete inhibition) (Candida albicans; [4]) | MIC0 (complete inhibition) (Candida albicans; [10]) | MIC0 (complete inhibition) (Candida glabrata; [12]) | MIC0 (complete inhibition) (Candida glabrata; isolate MMX 7087 (Susceptible)) | MIC0 (complete inhibition) (Candida auris; [19])
1 µg/mL: MIC0 (complete inhibition) (Candida auris; [25]) | MIC0 (complete inhibition) (Candida auris; [26]) | MIC0 (complete inhibition) (Candida auris; isolate MMX 9871 (Susceptible)) | MIC0 (A. fumigatus; A. fumigatus ATCC 204305) | MIC0 (A. fumigatus; A. fumigatus ATCC MYA-3626) | MIC0 (A. fumigatus; A. fumigatus MMX 5934) | MIC0 (A. fumigatus; A. fumigatus MMX 5938) | MIC0 (A. fumigatus; A. fumigatus MMX 5939) | MIC0 (A. flavus; A. flavus ATCC 22546) | MIC0 (A. flavus; A. flavus ATCC 204304) | MIC0 (A. flavus; A. flavus MMX 7935)

CC[C@H](C)C[C@H](C)CCCCCCCCC(=O)N[C@H]1C[C@@H](O)[C@@H](NCCN)NC(=O)[C@@H]2[C@@H](O)CCN2C(=O)[C@H]([C@H](O)CCN)NC(=O)[C@H]([C@H](O)[C@@H](O)c2ccc(O)cc2)NC(=O)[C@@H]2C[C@@H](O)CN2C(=O)[C@H]([C@@H](C)O)NC1=O [CASP]
8 µg/mL: MIC2 (50% inhibition) (Candida albicans; [7])
0.06 µg/mL: MIC2 (50% inhibition) (Candida albicans; [1]) | MIC2 (50% inhibition) (Candida albicans; [3]) | MIC2 (50% inhibition) (Candida albicans; [4]) | MIC2 (50% inhibition) (Candida albicans; [5]) | MIC2 (50% inhibition) (Candida albicans; [6]) | MIC2 (50% inhibition) (Candida albicans; [8]) | MIC2 (50% inhibition) (Candida albicans; [9]) | MIC2 (50% inhibition) (Candida glabrata; isolate MMX 7549 (Susceptible)) | MEC (minimum effective concentration) (A. fumigatus; A. fumigatus ATCC MYA-3626) | MEC (minimum effective concentration) (A. flavus; A. flavus ATCC 22546) | MEC (minimum effective concentration) (A. flavus; A. flavus ATCC 204304)
0.03 µg/mL: MEC (minimum effective concentration) (A. flavus; A. flavus MMX 7935)
0.25 µg/mL: MIC2 (50% inhibition) (Candida albicans; [2]) | MIC2 (50% inhibition) (Candida krusei; isolate ATCC 6258 (MICA-I)) | MIC2 (50% inhibition) (Candida krusei; isolate MMX 7125 (Susceptible)) | MIC2 (50% inhibition) (Candida krusei; isolate MMX 7128 (Susceptible)) | MIC2 (50% inhibition) (Candida krusei; isolate MMX 7141 (Susceptible)) | MIC2 (50% inhibition) (Candida krusei; isolate MMX 7153 (MICA-R)) | MIC2 (50% inhibition) (Candida krusei; isolate MMX 7155 (Susceptible)) | MIC2 (50% inhibition) (Candida krusei; [18]) | MIC2 (50% inhibition) (Candida auris; [24]) | MIC2 (50% inhibition) (Candida auris; [25]) | MIC2 (50% inhibition) (Candida auris; [26]) | MEC (minimum effective concentration) (A. fumigatus; A. fumigatus ATCC 204305)
0.06^a μg/mL: MIC2 (50% inhibition) (Candida albicans; isolate MMX 7445 (FLU-R, VORI-R), result after 48 hr incubation (insufficient growth at 24 hr))
0.12^b μg/mL: MIC2 (50% inhibition) (Candida auris; [19]) | MIC2 (50% inhibition) (Candida auris; [22]) | MEC (minimum effective concentration) (A. terreus; [27]) | MEC (minimum effective concentration) (A. fumigatus; A. fumigatus MMX 5938, 48 hr only, insufficient growth for 24 hr read)
0.012 µg/mL: MIC2 (50% inhibition) (Candida krusei; [16])
0.06^b μg/mL: MEC (minimum effective concentration) (A. niger; [27])
0.5 µg/mL: MIC2 (50% inhibition) (Candida glabrata; [14])
0.12 µg/mL: MIC2 (50% inhibition) (Candida glabrata; [11]) | MIC2 (50% inhibition) (Candida glabrata; [12]) | MIC2 (50% inhibition) (Candida glabrata; isolate MMX 7087 (Susceptible)) | MIC2 (50% inhibition) (Candida glabrata; isolate MMX 7093 (FLU-R)) | MIC2 (50% inhibition) (Candida glabrata; isolate MMX 7101 (FLU-R)) | MIC2 (50% inhibition) (Candida glabrata; isolate MMX 7111 (Susceptible)) | MIC2 (50% inhibition) (Candida krusei; [17]) | MIC2 (50% inhibition) (Candida krusei; isolate MMX 7563 (Susceptible)) | MIC2 (50% inhibition) (Candida auris; isolate MMX 9862 (Susceptible)) | MIC2 (50% inhibition) (Candida auris; [23]) | MEC (minimum effective concentration) (A. fumigatus; A. fumigatus MMX 5934) | MEC (minimum effective concentration) (A. fumigatus; A. fumigatus MMX 5939)
0.25^b μg/mL: MIC2 (50% inhibition) (Candida auris; [20]) | MIC2 (50% inhibition) (Candida auris; [21]) | MIC2 (50% inhibition) (Candida auris; isolate MMX 9871 (Susceptible))
>8 µg/mL: MIC2 (50% inhibition) (Candida glabrata; [13]) | MIC2 (50% inhibition) (Candida glabrata; [15])

C[C@@H](c1ncncc1F)[C@](O)(Cn1cncn1)c1ccc(F)cc1F [VORI]
1 µg/mL: MIC2 (50% inhibition) (Candida glabrata; [14]) | MIC2 (50% inhibition) (Candida krusei; [18]) | MIC2 (50% inhibition) (Candida auris; isolate MMX 9871 (Susceptible)) | MIC0 (A. flavus; A. flavus ATCC 22546)
8 µg/mL: MIC2 (50% inhibition) (Candida auris; [21]) | MIC2 (50% inhibition) (Candida auris; [22]) | MIC2 (50% inhibition) (Candida auris; [23])
2 µg/mL: MIC2 (50% inhibition) (Candida glabrata; isolate MMX 7093 (FLU-R)) | MIC2 (50% inhibition) (Candida glabrata; isolate MMX 7101 (FLU-R)) | MIC2 (50% inhibition) (Candida auris; [20]) | MIC2 (50% inhibition) (Candida auris; [25]) | MIC0 (A. fumigatus; A. fumigatus MMX 5939) | MIC0 (A. flavus; A. flavus ATCC 204304)
0.25 µg/mL: MIC2 (50% inhibition) (Candida krusei; isolate MMX 7125 (Susceptible)) | MIC2 (50% inhibition) (Candida krusei; isolate MMX 7153 (MICA-R)) | MIC2 (50% inhibition) (Candida krusei; isolate MMX 7155 (Susceptible)) | MIC2 (50% inhibition) (Candida krusei; isolate MMX 7563 (Susceptible)) | MIC0 (A. terreus) | MIC0 (A. fumigatus; A. fumigatus MMX 5934) | MIC0 (A. fumigatus; A. fumigatus MMX 5938)
0.06 µg/mL: MIC2 (50% inhibition) (Candida glabrata; isolate MMX 7111 (Susceptible)) | MIC2 (50% inhibition) (Candida glabrata; isolate MMX 7549 (Susceptible)) | MIC2 (50% inhibition) (Candida krusei; [16])
4 µg/mL: MIC2 (50% inhibition) (Candida glabrata; [15]) | MIC2 (50% inhibition) (Candida auris; [26])
0.5 µg/mL: MIC2 (50% inhibition) (Candida albicans; [3]) | MIC2 (50% inhibition) (Candida krusei; [17]) | MIC0 (A. niger) | MIC0 (A. fumigatus; A. fumigatus ATCC 204305) | MIC0 (A. fumigatus; A. fumigatus ATCC MYA-3626) | MIC0 (A. flavus; A. flavus MMX 7935)
>8 µg/mL: MIC2 (50% inhibition) (Candida albicans; [5]) | MIC2 (50% inhibition) (Candida albicans; [10]) | MIC2 (50% inhibition) (Candida auris; [19]) | MIC2 (50% inhibition) (Candida auris; [24])
≤0.008 µg/mL: MIC2 (50% inhibition) (Candida albicans; [1]) | MIC2 (50% inhibition) (Candida albicans; [2]) | MIC2 (50% inhibition) (Candida albicans; [4]) | MIC2 (50% inhibition) (Candida albicans; [6]) | MIC2 (50% inhibition) (Candida albicans; [7]) | MIC2 (50% inhibition) (Candida albicans; [8])
0.03 µg/mL: MIC2 (50% inhibition) (Candida glabrata; isolate MMX 7087 (Susceptible)) | MIC2 (50% inhibition) (Candida auris; isolate MMX 9862 (Susceptible))
0.12 µg/mL: MIC2 (50% inhibition) (Candida albicans; [9]) | MIC2 (50% inhibition) (Candida glabrata; [11]) | MIC2 (50% inhibition) (Candida glabrata; [12]) | MIC2 (50% inhibition) (Candida glabrata; [13]) | MIC2 (50% inhibition) (Candida krusei; isolate ATCC 6258 (MICA-I)) | MIC2 (50% inhibition) (Candida krusei; isolate MMX 7128 (Susceptible)) | MIC2 (50% inhibition) (Candida krusei; isolate MMX 7141 (Susceptible))

From patent US11464749B2, “Bismuth-thiol compositions and methods of use” (Microbion Corporation, priority 2018, dated 2022)
